{"source": "PubChem BioAssay (NCI)", "assay_in_all_cases": "NCI anticancer screen, dose series, 48 h", "key": {"[1]": {"test_system": "786-0 renal"}, "[2]": {"test_system": "A498 renal"}, "[3]": {"test_system": "A549 NSCLC"}, "[4]": {"test_system": "ACHN renal"}, "[5]": {"test_system": "BT-549 breast"}, "[6]": {"test_system": "CAKI-1 renal"}, "[7]": {"test_system": "CCRF-CEM leukemia"}, "[8]": {"test_system": "COLO 205 colon"}, "[9]": {"test_system": "DLD-1 colon"}, "[10]": {"test_system": "DMS 114 small cell lung"}, "[11]": {"test_system": "DU-145 prostate"}, "[12]": {"test_system": "EKVX NSCLC"}, "[13]": {"test_system": "HCC-2998 colon"}, "[14]": {"test_system": "HCT-116 colon"}, "[15]": {"test_system": "HCT-15 colon"}, "[16]": {"test_system": "HL-60(TB) leukemia"}, "[17]": {"test_system": "HOP-92 NSCLC"}, "[18]": {"test_system": "HT29 colon"}, "[19]": {"test_system": "IGROV1 ovarian"}, "[20]": {"test_system": "K-562 leukemia"}, "[21]": {"test_system": "KM12 colon"}, "[22]": {"test_system": "KM20L2 colon"}, "[23]": {"test_system": "LOX IMVI melanoma"}, "[24]": {"test_system": "LXFL 529 NSCLC"}, "[25]": {"test_system": "M14 melanoma"}, "[26]": {"test_system": "M19-MEL melanoma"}, "[27]": {"test_system": "MALME-3M melanoma"}, "[28]": {"test_system": "MCF7 breast"}, "[29]": {"test_system": "MDA-MB-231 breast"}, "[30]": {"test_system": "MDA-MB-435"}, "[31]": {"test_system": "MDA-N"}, "[32]": {"test_system": "MOLT-4 leukemia"}, "[33]": {"test_system": "NCI-H226 lung"}, "[34]": {"test_system": "NCI-H23 lung"}, "[35]": {"test_system": "NCI-H460 lung"}, "[36]": {"test_system": "NCI-H522 lung"}, "[37]": {"test_system": "NCI/ADR-RES ovarian"}, "[38]": {"test_system": "OVCAR-3 ovarian"}, "[39]": {"test_system": "OVCAR-4 ovarian"}, "[40]": {"test_system": "OVCAR-5 ovarian"}, "[41]": {"test_system": "OVCAR-8 ovarian"}, "[42]": {"test_system": "PC-3 prostate"}, "[43]": {"test_system": "RPMI-8226 leukemia"}, "[44]": {"test_system": "SF-268 CNS"}, "[45]": {"test_system": "SF-295 CNS"}, "[46]": {"test_system": "SF-539 CNS"}, "[47]": {"test_system": "SK-MEL-2 melanoma"}, "[48]": {"test_system": "SK-MEL-28 melanoma"}, "[49]": {"test_system": "SK-MEL-5 melanoma"}, "[50]": {"test_system": "SK-OV-3 ovarian"}, "[51]": {"test_system": "SN12C renal"}, "[52]": {"test_system": "SNB-19 CNS"}, "[53]": {"test_system": "SNB-75 CNS"}, "[54]": {"test_system": "SNB-78 CNS"}, "[55]": {"test_system": "SR leukemia"}, "[56]": {"test_system": "SW-620 colon"}, "[57]": {"test_system": "T-47D breast"}, "[58]": {"test_system": "TK-10 renal"}, "[59]": {"test_system": "U251 CNS"}, "[60]": {"test_system": "UACC-257 melanoma"}, "[61]": {"test_system": "UACC-62 melanoma"}, "[62]": {"test_system": "XF 498 CNS"}}, "note": "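Compound exposure: 48 hours, 5 concentrations, 96-well plates. TGI is the concentration that stops growth completely.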", "data": [{"smiles": "CC1=NN(C(=O)c2ccccc2O)C(=O)/C1=C/c1ccco1", "values": [{"measurement": "TGI", "setting": "[1]", "result": "> 100", "unit": "µM"}, {"measurement": "TGI", "setting": "[2]", "result": "> 100", "unit": "µM"}, {"measurement": "TGI", "setting": "[3]", "result": "> 100", "unit": "µM"}, {"measurement": "TGI", "setting": "[4]", "result": "> 100", "unit": "µM"}, {"measurement": "TGI", "setting": "[5]", "result": "> 100", "unit": "µM"}, {"measurement": "TGI", "setting": "[6]", "result": 19.7, "unit": "µM"}, {"measurement": "TGI", "setting": "[7]", "result": "> 100", "unit": "µM"}, {"measurement": "TGI", "setting": "[8]", "result": "> 63.8", "unit": "µM"}, {"measurement": "TGI", "setting": "[9]", "result": "> 100", "unit": "µM"}, {"measurement": "TGI", "setting": "[10]", "result": 6.94, "unit": "µM"}, {"measurement": "TGI", "setting": "[11]", "result": "> 100", "unit": "µM"}, {"measurement": "TGI", "setting": "[12]", "result": 44.2, "unit": "µM"}, {"measurement": "TGI", "setting": "[13]", "result": "> 100", "unit": "µM"}, {"measurement": "TGI", "setting": "[14]", "result": "> 100", "unit": "µM"}, {"measurement": "TGI", "setting": "[15]", "result": "> 100", "unit": "µM"}, {"measurement": "TGI", "setting": "[16]", "result": "> 26.8", "unit": "µM"}, {"measurement": "TGI", "setting": "[17]", "result": "> 71.4", "unit": "µM"}, {"measurement": "TGI", "setting": "[18]", "result": "> 100", "unit": "µM"}, {"measurement": "TGI", "setting": "[19]", "result": "> 35.4", "unit": "µM"}, {"measurement": "TGI", "setting": "[20]", "result": "> 100", "unit": "µM"}, {"measurement": "TGI", "setting": "[21]", "result": "> 100", "unit": "µM"}, {"measurement": "TGI", "setting": "[22]", "result": 81, "unit": "µM"}, {"measurement": "TGI", "setting": "[23]", "result": "> 75.5", "unit": "µM"}, {"measurement": "TGI", "setting": "[24]", "result": "> 100", "unit": "µM"}, {"measurement": "TGI", "setting": "[25]", "result": "> 100", "unit": "µM"}, {"measurement": "TGI", "setting": "[26]", "result": 20, "unit": "µM"}, {"measurement": "TGI", "setting": "[27]", "result": 73.1, "unit": "µM"}, {"measurement": "TGI", "setting": "[28]", "result": 37.9, "unit": "µM"}, {"measurement": "TGI", "setting": "[29]", "result": "> 100", "unit": "µM"}, {"measurement": "TGI", "setting": "[30]", "result": "> 100", "unit": "µM"}, {"measurement": "TGI", "setting": "[31]", "result": "> 100", "unit": "µM"}, {"measurement": "TGI", "setting": "[32]", "result": "> 100", "unit": "µM"}, {"measurement": "TGI", "setting": "[33]", "result": 44.4, "unit": "µM"}, {"measurement": "TGI", "setting": "[34]", "result": "> 26.9", "unit": "µM"}, {"measurement": "TGI", "setting": "[35]", "result": "> 60.5", "unit": "µM"}, {"measurement": "TGI", "setting": "[36]", "result": 37.7, "unit": "µM"}, {"measurement": "TGI", "setting": "[37]", "result": 85.3, "unit": "µM"}, {"measurement": "TGI", "setting": "[38]", "result": 6.11, "unit": "µM"}, {"measurement": "TGI", "setting": "[39]", "result": "> 84.8", "unit": "µM"}, {"measurement": "TGI", "setting": "[40]", "result": "> 100", "unit": "µM"}, {"measurement": "TGI", "setting": "[41]", "result": 97.9, "unit": "µM"}, {"measurement": "TGI", "setting": "[42]", "result": 46, "unit": "µM"}, {"measurement": "TGI", "setting": "[43]", "result": "> 92.6", "unit": "µM"}, {"measurement": "TGI", "setting": "[44]", "result": "> 100", "unit": "µM"}, {"measurement": "TGI", "setting": "[45]", "result": "> 88.3", "unit": "µM"}, {"measurement": "TGI", "setting": "[46]", "result": 10.7, "unit": "µM"}, {"measurement": "TGI", "setting": "[47]", "result": "> 100", "unit": "µM"}, {"measurement": "TGI", "setting": "[48]", "result": "> 100", "unit": "µM"}, {"measurement": "TGI", "setting": "[49]", "result": 9.19, "unit": "µM"}, {"measurement": "TGI", "setting": "[50]", "result": "> 82", "unit": "µM"}, {"measurement": "TGI", "setting": "[51]", "result": "> 39.3", "unit": "µM"}, {"measurement": "TGI", "setting": "[52]", "result": "> 91.1", "unit": "µM"}, {"measurement": "TGI", "setting": "[53]", "result": 69.4, "unit": "µM"}, {"measurement": "TGI", "setting": "[54]", "result": "> 100", "unit": "µM"}, {"measurement": "TGI", "setting": "[55]", "result": "> 100", "unit": "µM"}, {"measurement": "TGI", "setting": "[56]", "result": "> 100", "unit": "µM"}, {"measurement": "TGI", "setting": "[57]", "result": "> 100", "unit": "µM"}, {"measurement": "TGI", "setting": "[58]", "result": "> 100", "unit": "µM"}, {"measurement": "TGI", "setting": "[59]", "result": "> 100", "unit": "µM"}, {"measurement": "TGI", "setting": "[60]", "result": "> 83.1", "unit": "µM"}, {"measurement": "TGI", "setting": "[61]", "result": 6.27, "unit": "µM"}, {"measurement": "TGI", "setting": "[62]", "result": "> 100", "unit": "µM"}]}]}
